Assay results reported in PubChem BioAssay AID336 (DTP/NCI, 2004).
Values joined by “and” are separate entries in the source; they are usually repeats but may differ in a detail not shown here. Equal values may be shown once. Toxic doses and inconclusive results are not listed. How the source made its calls: active means survival T/C of 150% or more; inactive means T/C below 125% in these data.

Test system: BDF1 mice, P388/VCR leukemia ip, median survival T/C
Assay: NCI In Vivo Anticancer Drug Screen. Data for tumor model P388 Leukemia resistant to Vincristine; NSC 67574 (intraperitoneal) in B6D2F1 (BDF1) mice
Details: endpoint: median survival time, higher = longer survival
Protocol: The antitumor activity of compounds was measured in mice bearing transplantable tumors. Survival or tumor size were measured and the results are expressed as the measurement made in the treated group (T) divided by the measurement made in the vehicle treated control group (C). The tumor model used in this assay is P388 Leukemia resistant to Vincristine; NSC 67574 (intraperitoneal) in B6D2F1 (BDF1) mice

[1] = dose: 8.0 mg/kg/injection, schedule: Q01DX010 (ip), vehicle: saline
[2] = dose: 12.0 mg/kg/injection, schedule: Q01DX010 (ip), vehicle: saline
[3] = dose: 18.0 mg/kg/injection, schedule: Q01DX010 (ip), vehicle: saline
[4] = dose: 2.5 mg/kg/injection, schedule: Q01DX010 (ip), vehicle: saline
[5] = dose: 5.0 mg/kg/injection, schedule: Q01DX010 (ip), vehicle: saline
[6] = dose: 1.25 mg/kg/injection, schedule: Q01DX010 (ip), vehicle: saline
[7] = dose: 10.0 mg/kg/injection, schedule: Q01DX010 (ip), vehicle: saline
[8] = dose: 2.0 mg/kg/injection, schedule: Q01DX010 (ip), vehicle: saline
[9] = dose: 200.0 mg/kg/injection, schedule: Q01DX010 (ip), vehicle: saline

Measured: T/C

O=C(Nc1ccc(C2=NCCN2)cc1)c1ccc(C(=O)Nc2ccc(C3=NCCN3)cc2)c([N+](=O)[O-])c1
inactive: dose: 6.0 mg/kg/injection, schedule: Q01DX010 (ip), vehicle: saline 103 % of control | [1] 114 % of control | [2] 111 % of control | [3] 104 % of control and 111 % of control

COC(=O)Nc1nc2ccc(C(=O)c3cccs3)cc2[nH]1
active: dose: 21.6 mg/kg/injection, schedule: Q04DX003 (ip), vehicle: other 151 % of control | dose: 36.0 mg/kg/injection, schedule: Q04DX003 (ip), vehicle: other 242 % of control | dose: 60.0 mg/kg/injection, schedule: Q04DX003 (ip), vehicle: other 189 % of control

Oc1cc(CN(CCCl)CCCl)c(O)cc1CN(CCCl)CCCl
inactive: dose: 0.31 mg/kg/injection, schedule: Q01DX010 (ip), vehicle: saline 112 % of control | [4] 117 % of control | [5] 100 % of control

O=C(Nc1ccc(NC(=O)Nc2ccc(C3=NCCN3)cc2)cc1)Nc1ccc(C2=NCCN2)cc1
active: dose: 250.0 mg/kg/injection, schedule: Q01DX010 (ip), vehicle: saline 150 % of control | dose: 375.0 mg/kg/injection, schedule: Q01DX010 (ip), vehicle: saline 154 % of control

CCC1(O)CC2CN(CCc3c([nH]c4ccccc34)C(C(=O)OC)(c3cc4c(cc3OC)N(C)C3C(O)(C(=O)NCCO)C(O)C5(CC)C=CCN6CCC43C65)C2)C1 (configuration not stated)
inactive: dose: 500.0 micrograms/kg/injection, schedule: Q04DX003 (ip), vehicle: saline 107 % of control | dose: 1000.0 micrograms/kg/injection, schedule: Q04DX003 (ip), vehicle: saline 106 % of control | dose: 2000.0 micrograms/kg/injection, schedule: Q04DX003 (ip), vehicle: saline 105 % of control | dose: 4000.0 micrograms/kg/injection, schedule: Q04DX003 (ip), vehicle: saline 108 % of control

CC(=O)O[C@H]1C(=O)[C@@]2(C)[C@H]([C@H](OC(=O)c3ccccc3)[C@]3(O)C[C@H](OC(=O)[C@H](O)[C@@H](NC(=O)c4ccccc4)c4ccccc4)C(C)=C1C3(C)C)[C@]1(OC(C)=O)CO[C@@H]1C[C@@H]2O
inactive: dose: 21.6 mg/kg/injection, schedule: Q04DX003 (ip), vehicle: Klucel (hydroxypropylcellulose) (HPC) 98 % of control | dose: 36.0 mg/kg/injection, schedule: Q04DX003 (ip), vehicle: Klucel (hydroxypropylcellulose) (HPC) 93 % of control | dose: 60.0 mg/kg/injection, schedule: Q04DX003 (ip), vehicle: Klucel (hydroxypropylcellulose) (HPC) 87 % of control

NC(Cc1ccc(N(CCCl)CCCl)cc1)C(=O)O (configuration not stated)
inactive: [7] 86 % of control and 91 % of control
active: [6] 170 % of control | [4] 190 % of control and 191 % of control | [5] 300 % of control

CC1CN1P(=S)(N1CC1C)N1CC1C (configuration not stated)
inactive: [6] 93 % of control | [4] 96 % of control and 100 % of control | [5] 100 % of control | [7] 93 % of control and 107 % of control

C=CC(CN1CC1)OC(C)=O (configuration not stated)
inactive: [8] 116 % of control | [1] 123 % of control

CN(C)/N=N/c1nc[nH]c1C(N)=O
inactive: dose: 25.0 mg/kg/injection, schedule: Q01DX010 (ip), vehicle: saline 100 % of control and 116 % of control | dose: 50.0 mg/kg/injection, schedule: Q01DX010 (ip), vehicle: saline 107 % of control | [9] 107 % of control and 116 % of control

S=P(N1CCOCC1)(N1CC1)N1CC1
inactive: [4] 104 % of control and 109 % of control | [5] 100 % of control and 109 % of control | [7] 100 % of control and 122 % of control | dose: 20.0 mg/kg/injection, schedule: Q01DX010 (ip), vehicle: saline 86 % of control and 90 % of control

O=C[C@@H](CO)O[C@H](C=O)n1cnc2c(=O)[nH]cnc21
active: dose: 180.0 mg/kg/injection, schedule: Q04DX003 (ip), vehicle: water 210 % of control | dose: 300.0 mg/kg/injection, schedule: Q04DX003 (ip), vehicle: water 323 % of control

Nc1nc(SCc2ccccc2)c2[nH]cnc2n1
inactive: [1] 100 % of control | dose: 16.0 mg/kg/injection, schedule: Q01DX010 (ip), vehicle: saline 95 % of control and 100 % of control | dose: 32.0 mg/kg/injection, schedule: Q01DX010 (ip), vehicle: saline 104 % of control and 109 % of control | dose: 64.0 mg/kg/injection, schedule: Q01DX010 (ip), vehicle: saline 95 % of control and 100 % of control

COc1cc(NS(C)(=O)=O)ccc1Nc1c2ccccc2nc2ccccc12
active: dose: 3.6 mg/kg/injection, schedule: Q04DX003 (ip), vehicle: clinical formulation 188 % of control | dose: 6.0 mg/kg/injection, schedule: Q04DX003 (ip), vehicle: clinical formulation 191 % of control | dose: 10.0 mg/kg/injection, schedule: Q04DX003 (ip), vehicle: clinical formulation 193 % of control | dose: 10.0 mg/kg/injection, schedule: Q04DX003 (ip), vehicle: other 153 % of control
inactive: dose: 3.6 mg/kg/injection, schedule: Q04DX003 (ip), vehicle: other 122 % of control | dose: 16.7 mg/kg/injection, schedule: Q04DX003 (ip), vehicle: clinical formulation 107 % of control | dose: 16.7 mg/kg/injection, schedule: Q04DX003 (ip), vehicle: other 88 % of control

O=c1cnn(C2OC(CO)C(O)C2O)c(=O)[nH]1 (configuration not stated)
inactive: dose: 100.0 mg/kg/injection, schedule: Q01DX010 (ip), vehicle: saline 107 % of control | [9] 114 % of control | dose: 400.0 mg/kg/injection, schedule: Q01DX010 (ip), vehicle: saline 115 % of control and 121 % of control | dose: 800.0 mg/kg/injection, schedule: Q01DX010 (ip), vehicle: saline 123 % of control | dose: 1600.0 mg/kg/injection, schedule: Q01DX010 (ip), vehicle: saline 88 % of control

CCn1cnc2c(=S)nc[nH]c21
inactive: dose: 15.6 mg/kg/injection, schedule: Q01DX010 (ip), vehicle: saline 100 % of control and 109 % of control | dose: 31.3 mg/kg/injection, schedule: Q01DX010 (ip), vehicle: saline 100 % of control | dose: 62.5 mg/kg/injection, schedule: Q01DX010 (ip), vehicle: saline 100 % of control | dose: 125.0 mg/kg/injection, schedule: Q01DX010 (ip), vehicle: saline 95 % of control

COc1cccc2c1C(=O)c1c(O)c3c(c(O)c1C2=O)C[C@@](O)(C(=O)CO)C[C@@H]3OC1CC(N)C(O)C(C)O1 (some centres not stated)
inactive: dose: 6.67 mg/kg/injection, schedule: Q04DX003 (ip), vehicle: water 100 % of control
active: dose: 1.44 mg/kg/injection, schedule: Q04DX003 (ip), vehicle: saline 172 % of control | dose: 1.44 mg/kg/injection, schedule: Q04DX003 (ip), vehicle: water 168 % of control | dose: 2.4 mg/kg/injection, schedule: Q04DX003 (ip), vehicle: saline 188 % of control | dose: 2.4 mg/kg/injection, schedule: Q04DX003 (ip), vehicle: water 159 % of control and 200 % of control | dose: 4.0 mg/kg/injection, schedule: Q04DX003 (ip), vehicle: saline 169 % of control | dose: 4.0 mg/kg/injection, schedule: Q04DX003 (ip), vehicle: water 155 % of control and 168 % of control | dose: 6.67 mg/kg/injection, schedule: Q04DX003 (ip), vehicle: saline 182 % of control

CS(=O)(=O)OCCCl
inactive: dose: 37.5 mg/kg/injection, schedule: Q01DX010 (ip), vehicle: saline 95 % of control and 100 % of control | dose: 75.0 mg/kg/injection, schedule: Q01DX010 (ip), vehicle: saline 95 % of control and 100 % of control

CC[C@@]1(O)C[C@H](OC2CC(N(C)C)C(OC3CC(O)C(OC4CCC(=O)C(C)O4)C(C)O3)C(C)O2)c2c(cc3c(c2O)C(=O)c2c(O)ccc(O)c2C3=O)[C@H]1C(=O)OC (some centres not stated)
inactive: dose: 2.88 mg/kg/injection, schedule: Q04DX003 (ip), vehicle: water 118 % of control | dose: 4.8 mg/kg/injection, schedule: Q04DX003 (ip), vehicle: water 117 % of control | dose: 8.0 mg/kg/injection, schedule: Q04DX003 (ip), vehicle: water 95 % of control

CC(C)[C@](O)(C(=O)OCC1=CC[N+]2([O-])CC[C@@H](O)[C@@H]12)[C@H](C)O (some centres not stated)
inactive: dose: 130.0 mg/kg/injection, schedule: Q01DX009 (ip), vehicle: water 98 % of control | dose: 216.0 mg/kg/injection, schedule: Q01DX009 (ip), vehicle: water 106 % of control | dose: 360.0 mg/kg/injection, schedule: Q01DX009 (ip), vehicle: water 113 % of control | dose: 600.0 mg/kg/injection, schedule: Q01DX009 (ip), vehicle: water 107 % of control

O=C(Nc1ccc(NC2=NCCN2)cc1)c1ccc(C(=O)Nc2ccc(NC3=NCCN3)cc2)cc1
active: dose: 4.0 mg/kg/injection, schedule: Q01DX010 (ip), vehicle: saline 192 % of control | [1] 171 % of control and 211 % of control
inactive: [8] 121 % of control

CCCNC(=NC)c1ccc(NC(=O)c2ccc(C(=O)Nc3ccc(C(=NC)NCCC)cc3)cc2)cc1
inactive: dose: 5.2 mg/kg/injection, schedule: Q01DX010 (ip), vehicle: saline 113 % of control | [1] 113 % of control | [2] 118 % of control | [3] 100 % of control
